Reference: patent US11453683B1, “KRas G12D inhibitors” (Mirati Therapeutics, Inc., priority 2019, dated 2022)

system: KRas G12D-mediated phosphorylation of ERK; test: Inhibition of KRas G12D-mediated phosphorylation of ERK in AGS cells; type: cell-based; conditions: Homo sapiens; AGS cells expressing G12D, 3 hours, phospho-ERK normalized to GAPDH
Summary of the method: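 Fixed, methanol-permeabilized; phospho-ERK (Thr202/Tyr204) by in-cell immunofluorescence normalized to GAPDH. Percent of DMSO control, IC50 by 4-parameter fit.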

Row | SMILES | IC50 [nM]
1 | Oc1ccc(OC(F)(F)F)c(-c2ncc3c(N4C[C@H]5CC[C@@H](C4)N5)nc(OCC45CCCN4CCC5)nc3c2F)c1 [Example 341, 3-(4-((1R,5S)-3,8-diazabicyclo[3.2.1]octan-3-yl)-8-fluoro-2-((tetrahydro-1H-pyrrolizin-7a(5H)-yl)methoxy)pyrido[4,3-d]pyrimidin-7-yl)-4-(trifluoromethoxy)phenol] | 837
2 | Fc1c(-c2c(C(F)(F)F)ccc3[nH]ncc23)ncc2c(N3C[C@H]4CC[C@@H](C3)N4)nc(OCC34CCCN3CCC4)nc12 [Example 344, 4-((1R,5S)-3,8-diazabicyclo[3.2.1]octan-3-yl)-8-fluoro-2-((tetrahydro-1H-pyrrolizin-7a(5H)-yl)methoxy)-7-(5-(trifluoromethyl)-1H-indazol-4-yl)pyrido[4,3-d]pyrimidine] | 8070
3 | Fc1c(-c2cccc3cccc(OC(F)(F)F)c23)ncc2c(N3C[C@H]4CC[C@@H](C3)N4)nc(OCC34CCCN3CCC4)nc12 [Example 345, 4-((1R,5S)-3,8-diazabicyclo[3.2.1]octan-3-yl)-8-fluoro-2-((tetrahydro-1H-pyrrolizin-7a(5H)-yl)methoxy)-7-(8-(trifluoromethoxy)naphthalen-1-yl)pyrido[4,3-d]pyrimidine] | 1470
4 | Fc1c(-c2cccc3cccc(OC(F)F)c23)ncc2c(N3C[C@H]4CC[C@@H](C3)N4)nc(OCC34CCCN3CCC4)nc12 [Example 346, 4-((1R,5S)-3,8-diazabicyclo[3.2.1]octan-3-yl)-7-(8-(difluoromethoxy)naphthalen-1-yl)-8-fluoro-2-((tetrahydro-1H-pyrrolizin-7a(5H)-yl)methoxy)pyrido[4,3-d]pyrimidine] | 1350
5 | CC(C)c1ccccc1-c1ncc2c(N3CC4CCC(C3)N4)nc(OCC34CCCN3C[C@H](F)C4)nc2c1F (stereo partly drawn) [Example 348, 4-((1R,5S)-3,8-diazabicyclo[3.2.1]octan-3-yl)-8-fluoro-2-((2-fluorotetrahydro-1H-pyrrolizin-7a(5H)-yl)methoxy)-7-(2-isopropylphenyl)pyrido[4,3-d]pyrimidine] | 779
6 | CO[C@H]1CN[C@H](COc2nc(N3C[C@H]4CC[C@@H](C3)N4)c3cnc(-c4cccc5cccc(Cl)c45)c(F)c3n2)C1 [Example 351] | > 16700
7 | CN1CC[C@@H](COc2nc(N3C[C@H]4CC[C@@H](C3)N4)c3cnc(-c4cccc5cccc(Cl)c45)c(F)c3n2)C1 [Example 356, 4-((1R,5S)-3,8-diazabicyclo[3.2.1]octan-3-yl)-7-(8-chloronaphthalen-1-yl)-8-fluoro-2-(((R)-1-methylpyrrolidin-3-yl)methoxy)pyrido[4,3-d]pyrimidine] | 11900
8 | COc1nc(N2C[C@H]3CC[C@@H](C2)N3)c2cnc(-c3cc(O)cc4cccc(Cl)c34)c(F)c2n1 [Example 360, 4-(4-((1R,5S)-3,8-diazabicyclo[3.2.1]octan-3-yl)-8-fluoro-2-methoxypyrido[4,3-d]pyrimidin-7-yl)-5-chloronaphthalen-2-ol] | 8350
9 | Oc1cc(-c2ncc3c(N4C[C@H]5CC[C@@H](C4)N5)nc(OCC45CCCN4CCC5)nc3c2F)c2c(F)cccc2c1 [Example 367, 4-(4-((1R,5S)-3,8-diazabicyclo[3.2.1]octan-3-yl)-8-fluoro-2-((tetrahydro-1H-pyrrolizin-7a(5H)-yl)methoxy)pyrido[4,3-d]pyrimidin-7-yl)-5-fluoronaphthalen-2-ol tris(2,2,2-trifluoroacetate)] | 112
10 | Fc1c(-c2ccccc2C(F)(F)F)ncc2c(N3C[C@H]4CC[C@@H](C3)N4)nc(OCC34CCCN3CCC4)nc12 [Example 370, 4-((1R,5S)-3,8-diazabicyclo[3.2.1]octan-3-yl)-8-fluoro-2-((tetrahydro-1H-pyrrolizin-7a(5H)-yl)methoxy)-7-(2-(trifluoromethyl)phenyl)pyrido[4,3-d]pyrimidine] | 10700
11 | Oc1ccc(C(F)(F)F)c(-c2ncc3c(N4C[C@H]5CC[C@@H](C4)N5)nc(OCC45CCCN4CCC5)nc3c2F)c1 [Example 373, 3-(4-((1R,5S)-3,8-diazabicyclo[3.2.1]octan-3-yl)-8-fluoro-2-((tetrahydro-1H-pyrrolizin-7a(5H)-yl)methoxy)pyrido[4,3-d]pyrimidin-7-yl)-4-(trifluoromethyl)phenol] | > 16700
12 | Oc1cc(-c2ncc3c(N4C[C@H]5CC[C@@H](C4)N5)nc(OCCC(F)(F)F)nc3c2F)c2c(Cl)cccc2c1 [Example 393, 4-(4-((1R,5S)-3,8-diazabicyclo[3.2.1]octan-3-yl)-8-fluoro-2-(3,3,3-trifluoropropoxy)pyrido[4,3-d]pyrimidin-7-yl)-5-chloronaphthalen-2-ol] | 7580
13 | O[C@@H]1C[C@@H]2CN(c3nc(OC[C@@]45CCCN4C[C@H](F)C5)nc4c(F)c(-c5cccc6cccc(Cl)c56)ncc34)C[C@H]1N2 [Example 395, (1R,5R,6R)-3-(7-(8-chloronaphthalen-1-yl)-8-fluoro-2-((2-fluorotetrahydro-1H-pyrrolizin-7a(5H)-yl)methoxy)pyrido[4,3-d]pyrimidin-4-yl)-3,8-diazabicyclo[3.2.1]octan-6-ol] | 1090
14 | Fc1c(-c2cccc3cccc(Cl)c23)ncc2c(N3CC4CC(F)C(C3)N4)nc(OC[C@@]34CCCN3C[C@H](F)C4)nc12 (stereo partly drawn) [Example 396, 7-(8-chloronaphthalen-1-yl)-8-fluoro-4-(6-fluoro-3,8-diazabicyclo[3.2.1]octan-3-yl)-2-((2-fluorotetrahydro-1H-pyrrolizin-7a(5H)-yl)methoxy)pyrido[4,3-d]pyrimidine] | 8170
15 | CO[C@@H]1C[C@@H]2CN(c3nc(OC[C@@]45CCCN4C[C@H](F)C5)nc4c(F)c(-c5cccc6cccc(Cl)c56)ncc34)C[C@H]1N2 [Example 397, 7-(8-chloronaphthalen-1-yl)-8-fluoro-2-((2-fluorotetrahydro-1H-pyrrolizin-7a(5H)-yl)methoxy)-4-((1R,5R,6R)-6-methoxy-3,8-diazabicyclo[3.2.1]octan-3-yl)pyrido[4,3-d]pyrimidine] | > 16700
16 | Oc1cc(-c2ncc3c(N4C[C@H]5CC[C@@H](C4)N5)nc(OCC45CCCN4C(CF)CC5)nc3c2F)c2c(Cl)cccc2c1 (stereo partly drawn) [Example 400, 4-(4-((1R,5S)-3,8-diazabicyclo[3.2.1]octan-3-yl)-8-fluoro-2-((3-(fluoromethyl)tetrahydro-1H-pyrrolizin-7a(5H)-yl)methoxy)pyrido[4,3-d]pyrimidin-7-yl)-5-chloronaphthalen-2-ol] | 261
17 | CC(C)c1ccc(O)cc1-c1ncc2c(N3C[C@H]4CC[C@@H](C3)N4)nc(OCC34CCCN3CCC4)nc2c1F [Example 403, 3-(4-((1R,5S)-3,8-diazabicyclo[3.2.1]octan-3-yl)-8-fluoro-2-((tetrahydro-1H-pyrrolizin-7a(5H)-yl)methoxy)pyrido[4,3-d]pyrimidin-7-yl)-4-isopropylphenol] | 2880
18 | COC1(OC)CN2CCCC2(COc2nc(N3C[C@H]4CC[C@@H](C3)N4)c3cnc(-c4cccc5cccc(Cl)c45)c(F)c3n2)C1 (stereo partly drawn) [Example 404, 4-((1R,5S)-3,8-diazabicyclo[3.2.1]octan-3-yl)-7-(8-chloronaphthalen-1-yl)-2-((2,2-dimethoxytetrahydro-1H-pyrrolizin-7a(5H)-yl)methoxy)-8-fluoropyrido[4,3-d]pyrimidine] | 8330
19 | CN(C)C(=O)OC[C@H]1CC[C@@]2(COc3nc(N4CC5CCC(C4)N5)c4cnc(-c5cccc6cccc(Cl)c56)c(F)c4n3)CCCN12 [Example 405, (7a-(((4-(3,8-diazabicyclo[3.2.1]octan-3-yl)-7-(8-chloronaphthalen-1-yl)-8-fluoropyrido[4,3-d]pyrimidin-2-yl)oxy)methyl)hexahydro-1H-pyrrolizin-3-yl)methyl dimethylcarbamate] | 297
20 | CNC(=O)OC[C@H]1CC[C@@]2(COc3nc(N4CC5CCC(C4)N5)c4cnc(-c5cccc6cccc(Cl)c56)c(F)c4n3)CCCN12 [Example 408, (7a-(((4-(3,8-diazabicyclo[3.2.1]octan-3-yl)-7-(8-chloronaphthalen-1-yl)-8-fluoropyrido[4,3-d]pyrimidin-2-yl)oxy)methyl)hexahydro-1H-pyrrolizin-3-yl)methyl methylcarbamate] | 238
21 | COC(=O)NC[C@H]1CC[C@@]2(COc3nc(N4CC5CCC(C4)N5)c4cnc(-c5cccc6cccc(Cl)c56)c(F)c4n3)CCCN12 [Example 411, methyl ((7a-(((4-(3,8-diazabicyclo[3.2.1]octan-3-yl)-7-(8-chloronaphthalen-1-yl)-8-fluoropyrido[4,3-d]pyrimidin-2-yl)oxy)methyl)hexahydro-1H-pyrrolizin-3-yl)methyl)carbamate] | 745
22 | CN(C)C(=O)NC[C@H]1CC[C@@]2(COc3nc(N4CC5CCC(C4)N5)c4cnc(-c5cccc6cccc(Cl)c56)c(F)c4n3)CCCN12 [Example 412, 3-((7a-(((4-(3,8-diazabicyclo[3.2.1]octan-3-yl)-7-(8-chloronaphthalen-1-yl)-8-fluoropyrido[4,3-d]pyrimidin-2-yl)oxy)methyl)hexahydro-1H-pyrrolizin-3-yl)methyl)-1,1-dimethylurea] | 4780
23 | Fc1c(-c2cccc3cccc(Cl)c23)ncc2c(N3C[C@H]4CC[C@@H](C3)N4)nc(OC[C@]34CCCN3[C@@H](Cn3cccn3)CC4)nc12 [Example 418, 2-((3-((1H-pyrazol-1-yl)methyl)tetrahydro-1H-pyrrolizin-7a(5H)-yl)methoxy)-4-(3,8-diazabicyclo[3.2.1]octan-3-yl)-7-(8-chloronaphthalen-1-yl)-8-fluoropyrido[4,3-d]pyrimidine bis(2,2,2-trifluoroacetate)] | 2740
24 | Fc1c(-c2cccc3cccc(C(F)(F)F)c23)ncc2c(N3C[C@H]4CC[C@@H](C3)N4)nc(OC[C@@]34CCCN3C[C@H](F)C4)nc12 [Example 419, 4-((1R,5S)-3,8-diazabicyclo[3.2.1]octan-3-yl)-8-fluoro-2-(((2R,7aS)-2-fluorotetrahydro-1H-pyrrolizin-7a(5H)-yl)methoxy)-7-(8-(trifluoromethyl)naphthalen-1-yl)pyrido[4,3-d]pyrimidine] | 2780
